# How the values were obtained:
# [1] = test system: adriamycin sensitive MCF7 cells; test: LIVE/DEAD viability/cytotoxicity assay, adriamycin sensitive MCF7 cell spheroids in microfluidic device (compared with 2D monolayers); format: cell-based
# Experimental: FIGS. 6A and 6B show adriamycin resistant MCF7 cell spheroids at 96 hr incubation without doxorubicin (FIG. 6A) and at 48 hr incubation with 12.8 μM doxorubicin (FIG. 6B). […] FIGS. 6C and 6D show adriamycin sensitive MCF7 cell spheroids at 96 hr incubation without doxorubicin (FIG. 6C) and at 48 hr incubation with 12.8 μM doxorubicin (FIG. 6D).
# [2] = test system: co-cultured MCF7 and HS5 cells; test: LIVE/DEAD viability assay, co-cultured MCF7 and HS5 fibroblast cell spheroids in microfluidic device; format: cell-based; conditions: 3D spheroids, doxorubicin 3200 nM and 12800 nM, FIG. 7D
# [3] = test system: adriamycin resistant MCF7 cells; test: LIVE/DEAD viability/cytotoxicity assay, adriamycin resistant MCF7 cell spheroids in microfluidic device (compared with 2D monolayers)
# [4] = 3D spheroids, doxorubicin 800 nM to 12800 nM, FIG. 7C
compound,measurement,setting,value
COc1cccc2c1C(=O)c1c(O)c3c(c(O)c1C2=O)C[C@@](O)(C(=O)CO)C[C@@H]3O[C@H]1C[C@H](N)[C@H](O)[C@H](C)O1 [doxorubicin],susceptibility to doxorubicin (red fluorescent nuclei staining) versus adriamycin resistant cells,"[1]; 3D spheroids, 12.8 μM doxorubicin, 48 hr incubation, FIG. 6D vs 6B",more susceptible to doxorubicin than the adriamycin resistant cells
same,survival rate in spheroids,[1]; [4],high and comparable survival rates
same,"cell viability, 2D monolayers versus 3D spheroids","[1]; doxorubicin 1600 nM to 12800 nM, p<0.05, FIG. 7B",statistically significant difference in cell viability
same,"overall cell survival rate in response to doxorubicin, with fibroblasts versus MCF7 adriamycin sensitive spheroids alone",[2],significant increase in the overall cell survival rate
same,"cell viability, 2D monolayers versus 3D spheroids","[3]; 12.8 μM doxorubicin, p<0.05, cells more susceptible in 2D than 3D, FIG. 7A",statistically significant difference in cell viability
same,"cell toxicity (red fluorescence, LIVE/DEAD assay)","[3]; 3D spheroids, 12.8 μM doxorubicin, 48 hr incubation, FIG. 6B",cell toxicity
same,survival rate in spheroids,[3]; [4],high and comparable survival rates

# — patent US10928382B2, “Microfluidic device and method for analysis of tumor cell microenvironments” (Northeastern University, priority 2014, dated 2021)
